# Calls of active or inactive are those of the source. No cut-off for these calls is given here.
# Key:
# [1] = test system: HCCLM3; test: Induction of glycolysis in human HCCLM3 cells assessed as decrease in level of acetyl-CoA at 5 nM; format: functional, cell-based
# [2] = test system: HCCLM3; test: Antimigratory activity against PC knockout human HCCLM3 cells assessed as suppression of cell migration at 0.5 nM measured after 48 hrs by wound healing assay; format: functional, cell-based
# [3] = Inhibition of pyruvate carboxylase in human HepG2 cells measured upto 24 hrs by PC assay kit; format: cell-based
# [4] = test system: HCCLM3; test: Induction of apoptosis in human HCCLM3 cells assessed as cell rounding at 20 nM incubated for 24 hrs by DAPI staining based phase contrast microscopic analysis; format: functional
# [5] = test system: HCCLM3; test: Inhibition of epithelial-mesenchymal transition in human HCCLM3 cells assessed as decrease in N-cadherin expression at 0.05 to 1 nM incubated for 24 hrs by Western blot analysis; format: functional, cell-based; settings: dose 0.05-1 nM
# [6] = test system: HCCLM3; test: Induction of glycolysis in human HCCLM3 cells assessed as decrease in level of ATP at 5 nM; format: functional, cell-based
# [7] = test system: SK-HEP1; test: Antimigratory activity in human SK-HEP1 cells overexpressing PC assessed as suppression of cell migration at 0.5 nM measured after 48 hrs by wound healing assay; format: functional, cell-based
# [8] = Antiproliferative activity against human HCCLM3 cells assessed as inhibition of cell growth measured after 48 hrs by MTT assay; format: functional, cell-based; settings: HCCLM3, 48 h
# [9] = test system: HCCLM3; test: Induction of apoptosis in human HCCLM3 cells transfected with PC-flag plasmid assessed as reduction in cell viability at 20 to 100 nM incubated for 24 hrs by MTT assay; format: functional, cell-based; settings: dose 20-100 nM
# [10] = test system: HepG2; test: Antitumor activity against human HepG2 cells xenografted in NCR-nu/nu mouse assessed reduction in tumor growth at 25 to 50 mg/kg, ip administered alternate days for 21 days and measured 26 days post implantation; format: functional, organism-based; settings: dose 25-50 mg/kg, time 21.0 day
# [11] = test system: HCCLM3; test: Induction of glycolysis in human HCCLM3 cells assessed as decrease in level of malate at 5 nM; format: functional, cell-based
# [12] = test system: L02; test: Cytotoxicity against human HL7702 cells assessed as inhibition of cell growth measured upto 400 nM measured after 48 hrs by MTT assay; format: toxicity, cell-based; settings: l02, 48 h
# [13] = species: Homo sapiens; test: Binding affinity to recombinant pyruvate carboxylase (unknown origin) assessed as thermal stability at upto 1000 nM by cellular thermal […] assay; settings: dose nM <=1000
# [14] = test system: SK-HEP1; test: Inhibition of mesenchymal transition in human SK-HEP1 cells overexpressing PC assessed as effect on vimentin expression; format: functional, cell-based
# [15] = Systemic toxicity in NCR-nu/nu mouse bearing human HCCLM3 tumor assessed as pathological change in lung at 25 to 50 mg/kg, ip administered alternate days for 21 days and measured 26 days post implantation by H and E staining based analysis; format: organism-based; settings: in vivo, 504 h, dose 25-50 mg/kg, time 21 day
# [16] = test system: HepG2; test: Effect on cell cycle arrest in human HepG2 cells assessed as increase in accumulation of cells in G2/M phase at 20 to 80 nM incubated for 24 hrs by propidium iodide staining based flow cytometry analysis; format: functional; settings: dose 20-80 nM, TDE = time-dependent effect
# [17] = test system: HepG2; test: Induction of apoptosis in human HepG2 cells assessed as cell shrinkage at 100 nM incubated for 24 hrs by DAPI staining based phase contrast microscopic analysis; format: functional
# [18] = test system: HepG2; test: Antitumor activity against human HepG2 cells xenografted in NCR-nu/nu mouse assessed wet tumor weight at 50 mg/kg, ip administered alternate days for 21 days and measured 26 days post implantation (Rvb= 0.92 +/- 0.13 g); format: functional; settings: time 21 day
# [19] = Systemic toxicity in NCR-nu/nu mouse bearing human HCCLM3 tumor assessed as pathological change in kidney at 25 to 50 mg/kg, ip administered alternate days for 21 days and measured 26 days post implantation by H and E staining based analysis; format: organism-based; settings: in vivo, 504 h, dose 25-50 mg/kg, time 21 day
# [20] = test system: HCCLM3; test: Antiinvasive activity against human HCCLM3 cells assessed as reduction in cell invasion at 0.05 to 1 nM by matrigel transwell assay; format: functional, cell-based; settings: dose 0.05-1 nM
# [21] = Toxicity in NCR-nu/nu mouse bearing human HepG2 tumor assessed as effect on body weight at 25 to 50 mg/kg, ip administered alternate days for 21 days and measured every three days; format: organism-based; settings: in vivo, 504 h, dose 25-50 mg/kg, time 21 day
# [22] = test system: HepG2; test: Effect on cell cycle arrest in human HepG2 cells assessed as decrease in accumulation of cells at G0/G1 phase incubated for 24 hrs by propidium iodide staining based flow cytometry analysis; format: functional; settings: dose 20-80 nM
# [23] = Toxicity in NCR-nu/nu mouse bearing human HCCLM3 tumor assessed as effect on body weight at 25 to 50 mg/kg, ip administered alternate days for 21 days and measured every three days; format: organism-based; settings: in vivo, 504 h, dose 25-50 mg/kg, time 21 day
# [24] = test system: HCCLM3; test: Induction of mitochondrial oxidative stress in human HCCLM3 cells overexpressing PC assessed as accumulation of ROS at 10 nM by DCFH-DA staining based flow cytometry analysis; format: functional, cell-based
# [25] = test system: HCCLM3; test: Effect on ATP production in PC knockout human HCCLM3 cells assessed as reduction in intracellular ATP level at 10 nM by CellTiter-Lumni plus cell viability assay; format: functional, cell-based
# [26] = Inhibition of pyruvate carboxylase in human HepG2 cell lysate measured upto 24 hrs by PC assay kit; format: subcellular
# [27] = Antitumor activity against human HCCLM3 cells xenografted in NCR-nu/nu mouse assessed wet tumor weight at 25 mg/kg, ip administered alternate days for 21 days and measured 26 days post implantation (Rvb= 1.835 +/- 0.15 g); format: functional; settings: time 21 day
# [28] = Systemic toxicity in NCR-nu/nu mouse bearing human HCCLM3 tumor assessed as pathological change in liver at 25 to 50 mg/kg, ip administered alternate days for 21 days and measured 26 days post implantation by H and E staining based analysis; format: organism-based; settings: in vivo, 504 h, dose 25-50 mg/kg, time 21 day
# [29] = test system: MHCC97; test: Antiproliferative activity against human MHCC97 cells assessed as inhibition of cell growth measured after 48 hrs by MTT assay; format: functional, cell-based; settings: MHCC97, 48 h
# [30] = test system: HepG2; test: Antiproliferative activity against human HepG2 cells assessed as inhibition of cell growth at 10 to 200 nM measured up to 3 days by MTT assay; format: functional, cell-based; settings: dose 10-200 nM, time day <=3, TDE = time-dependent effect
# [31] = test system: HepG2; test: Effect on cell cycle arrest in human HepG2 cells assessed as decrease in accumulation of cells at G0/G1 phase at 20 nM measured upto 24 hrs hrs by propidium iodide staining based flow cytometry analysis; format: functional; settings: time hrs <=24, TDE = time-dependent effect
# [32] = test system: HCCLM3; test: Induction of glycolysis in human HCCLM3 cells assessed as decrease in level of serine at 5 nM; format: functional, cell-based
# [33] = test system: HCCLM3; test: Induction of glycolysis in human HCCLM3 cells assessed as decrease in level of oxaloacetate at 5 nM; format: functional, cell-based
# [34] = test system: SK-HEP1; test: Antiproliferative activity against human SK-HEP1 cells assessed as inhibition of cell growth measured after 48 hrs by MTT assay; format: functional, cell-based; settings: SK-HEP1, 48 h
# [35] = test system: HCCLM3; test: Antimigratory activity in human HCCLM3 cells assessed as inhibition of scratch closure at 0.05 to 1 nM measured after 24 hrs by […] assay; format: functional, cell-based; settings: dose 0.05-1 nM
# [36] = test system: HCCLM3; test: Antimigratory activity in human HCCLM3 cells assessed as inhibition of scratch closure at 0.05 to 1 nM measured after 24 hrs by wound healing assay; format: functional, cell-based; settings: dose 0.05-1 nM
smiles,measurement,setting,value
COc1ccc(CCc2cc(OC)c(OC)c(OC)c2)cc1O,Activity,[1],Active
same,Activity,[2],Active
same,IC50,[3],0.00935 µM
same,Activity,[4],Active
same,inhibition,[5],Active
same,Activity,[6],Active
same,Activity,[7],Active
same,IC50,[8],0.0177 µM
same,Activity,[9],inactive
same,Activity,[10],Active
same,Activity,[11],Active
same,Activity,[12],Non-Toxic
same,Activity,[13],Active
same,inhibition,[14],inactive
same,Activity,[15],Non-Toxic
same,Activity,[16],Tde
same,Activity,[17],Active
same,Activity,[18],0.32 g
same,Activity,[19],Non-Toxic
same,Activity,[20],Active
same,Activity,[21],Non-Toxic
same,Activity,[22],Dose-Dependent Effect
same,Activity,[23],Non-Toxic
same,Activity,[24],inactive
same,Activity,[25],Active
same,IC50,[26],0.00718 µM
same,Activity,[27],1.1883 g
same,Activity,[28],Non-Toxic
same,IC50,[29],0.386 µM
same,Activity,[30],Tde
same,Activity,[31],Tde
same,Activity,[32],Active
same,Activity,[33],Active
same,IC50,[34],0.757 µM
same,Activity,[35],Active
same,Activity,[36],Active

# Source: ChEMBL document CHEMBL5046245, “Identification of Pyruvate Carboxylase as the Cellular Target of Natural Bibenzyls with Potent Anticancer Activity against Hepatocellular Carcinoma via Metabolic Reprogramming” (J Med Chem, 2022)
